Source: PubChem BioAssay (NCI)
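Five compound concentrations were applied to cells in 96-well plates for 48 hours; endpoints were derived by simple linear interpolation of the resulting dose-response curve. The concentration for 50% growth inhibition is given as GI50. At the TGI there is no net growth.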

Legend:
Assay in all cases: growth of human tumour cells (NCI), 48 h; in the data active = GI50 below about 0.43 µM; inactive = the rest
[1] = system: 786-0 renal
[2] = system: A549 NSCLC
[3] = system: ACHN renal
[4] = system: BT-549 breast
[5] = system: CAKI-1 renal
[6] = system: CCRF-CEM leukemia
[7] = system: COLO 205 colon
[8] = system: DU-145 prostate
[9] = system: EKVX NSCLC
[10] = system: HCC-2998 colon
[11] = system: HCT-15 colon
[12] = system: HL-60(TB) leukemia
[13] = system: HOP-62 NSCLC
[14] = system: HOP-92 NSCLC
[15] = system: HS 578T breast
[16] = system: HT29 colon
[17] = system: IGROV1 ovarian
[18] = system: K-562 leukemia
[19] = system: KM12 colon
[20] = system: LOX IMVI melanoma
[21] = system: M14 melanoma
[22] = system: MALME-3M melanoma
[23] = system: MCF7 breast
[24] = system: MDA-MB-231 breast
[25] = system: MDA-MB-435
[26] = system: MOLT-4 leukemia
[27] = system: NCI-H226 lung
[28] = system: NCI-H23 lung
[29] = system: NCI-H460 lung
[30] = system: NCI-H522 lung
[31] = system: NCI/ADR-RES ovarian
[32] = system: OVCAR-3 ovarian
[33] = system: OVCAR-4 ovarian
[34] = system: OVCAR-5 ovarian
[35] = system: OVCAR-8 ovarian
[36] = system: PC-3 prostate
[37] = system: RPMI-8226 leukemia
[38] = system: RXF 393 renal
[39] = system: SF-268 CNS
[40] = system: SF-295 CNS
[41] = system: SF-539 CNS
[42] = system: SK-MEL-2 melanoma
[43] = system: SK-MEL-28 melanoma
[44] = system: SK-MEL-5 melanoma
[45] = system: SK-OV-3 ovarian
[46] = system: SN12C renal
[47] = system: SNB-19 CNS
[48] = system: SNB-75 CNS
[49] = system: SR leukemia
[50] = system: SW-620 colon
[51] = system: T-47D breast
[52] = system: TK-10 renal
[53] = system: U251 CNS
[54] = system: UACC-257 melanoma
[55] = system: UACC-62 melanoma
[56] = system: UO-31 renal
[57] = system: A498 renal
[58] = system: HCT-116 colon

COc1ccc(/C=C2/CCc3cc4ccc(OC)cc4[o+]c32)c(O)c1
50.6 µM: TGI [31]
22.5 µM: TGI [5]
6.13 µM: TGI [35]
6.09 µM: TGI [32]
20.5 µM: TGI [8]
32.6 µM: TGI [10]
19.8 µM: TGI [1]
45.6 µM: TGI [49]
27.6 µM: TGI [17]
27.9 µM: TGI [48]
25.7 µM: TGI [27]
28 µM: TGI [13]
93.8 µM: TGI [18]
18.8 µM: TGI [24]
7.93 µM: TGI [46]
10.7 µM: TGI [7]
5.62 µM: TGI [43]
19.9 µM: TGI [55]
41.6 µM: TGI [2]
5.02 µM: TGI [20]
25.3 µM: TGI [42] | TGI [45]
3.47 µM: TGI [25]
25.6 µM: TGI [47]
20.6 µM: TGI [33]
inactive: GI50 [1] 3.97 µM | GI50 [2] 18.5 µM | GI50 [3] 4.15 µM | GI50 [4] 12.1 µM | GI50 [5] 10.7 µM | GI50 [6] 3.88 µM | GI50 [7] 2.59 µM | GI50 [8] 8.15 µM | GI50 [9] 12.5 µM | GI50 [10] 15.3 µM | GI50 [11] 2.25 µM | GI50 [12] 4.96 µM | GI50 [13] 13.1 µM | GI50 [14] 11.7 µM | GI50 [15] 4.28 µM | GI50 [16] 2.12 µM | GI50 [17] 2.71 µM | GI50 [18] 11.4 µM | GI50 [19] 2.65 µM | GI50 [20] 2.12 µM | GI50 [21] 3.1 µM | GI50 [22] 3.08 µM | GI50 [23] 4.31 µM | GI50 [24] 3.75 µM | GI50 [25] 1.78 µM | GI50 [26] 3.71 µM | GI50 [27] 12.3 µM | GI50 [28] 10.4 µM | GI50 [29] 2.8 µM | GI50 [30] 12.7 µM | GI50 [31] 4.16 µM | GI50 [32] 2.48 µM | GI50 [33] 5.45 µM | GI50 [34] 17.2 µM | GI50 [35] 2.27 µM | GI50 [36] 2.74 µM | GI50 [37] 3.17 µM | GI50 [38] 7.08 µM | GI50 [39] 2.8 µM | GI50 [40] 16.3 µM | GI50 [41] 15.1 µM | GI50 [42] 11.8 µM | GI50 [43] 2.3 µM | GI50 [44] 14 µM | GI50 [45] 12.3 µM | GI50 [46] 2.51 µM | GI50 [47] 8.48 µM | GI50 [48] 12.9 µM | GI50 [49] 3.04 µM | GI50 [50] 2.23 µM | GI50 [51] 3.04 µM | GI50 [52] 11.7 µM | GI50 [53] 2.3 µM | GI50 [54] 15.8 µM | GI50 [55] 5.2 µM | GI50 [56] 2.39 µM
38 µM: TGI [40]
15.8 µM: TGI [3]
5.09 µM: TGI [50]
16.2 µM: TGI [36]
32 µM: TGI [54]
14.6 µM: TGI [21]
4.67 µM: TGI [16]
6.03 µM: TGI [11]
9.83 µM: TGI [39]
26.8 µM: TGI [9]
30.1 µM: TGI [28]
11.7 µM: TGI [22]
30.5 µM: TGI [30]
8.04 µM: TGI [56]
41.1 µM: TGI [44]
7.44 µM: TGI [19]
12.9 µM: TGI [37]
29.1 µM: TGI [14]
61.4 µM: TGI [12]
24.6 µM: TGI [38] | TGI [52]
22.1 µM: TGI [51]
34.5 µM: TGI [15]
9.74 µM: TGI [29]
31.7 µM: TGI [4]
40.3 µM: TGI [34]
22 µM: TGI [23]
5.57 µM: TGI [53]
31.8 µM: TGI [41]
> 100 µM: TGI [6] | TGI [26]

COc1ccc(CC(C)C(C)Cc2ccc(OC)c(OC)c2)cc1OC (centres undefined)
> 1400 µM: TGI [1] | TGI [57] | TGI [2] | TGI [3] | TGI [4] | TGI [5] | TGI [7] | TGI [8] | TGI [9] | TGI [58] | TGI [11] | TGI [12] | TGI [13] | TGI [14] | TGI [15] | TGI [16] | TGI [17] | TGI [18] | TGI [19] | TGI [20] | TGI [21] | TGI [22] | TGI [23] | TGI [24] | TGI [25] | TGI [26] | TGI [27] | TGI [28] | TGI [29] | TGI [30] | TGI [31] | TGI [32] | TGI [33] | TGI [34] | TGI [35] | TGI [36] | TGI [37] | TGI [39] | TGI [40] | TGI [41] | TGI [42] | TGI [43] | TGI [44] | TGI [45] | TGI [46] | TGI [47] | TGI [48] | TGI [49] | TGI [50] | TGI [51] | TGI [52] | TGI [53] | TGI [54] | TGI [55] | TGI [56]
inactive: GI50 [1] 804 µM | GI50 [57] > 1400 µM | GI50 [2] 600 µM | GI50 [3] > 1400 µM | GI50 [4] > 1400 µM | GI50 [5] > 1400 µM | GI50 [7] > 1400 µM | GI50 [8] > 1400 µM | GI50 [9] 986 µM | GI50 [58] 1280 µM | GI50 [11] > 1400 µM | GI50 [12] > 1400 µM | GI50 [13] 750 µM | GI50 [14] 235 µM | GI50 [15] > 1400 µM | GI50 [16] > 1400 µM | GI50 [17] 800 µM | GI50 [18] > 1400 µM | GI50 [19] > 1400 µM | GI50 [20] > 1400 µM | GI50 [21] > 1400 µM | GI50 [22] > 1400 µM | GI50 [23] 650 µM | GI50 [24] 126 µM | GI50 [25] > 1400 µM | GI50 [26] > 1400 µM | GI50 [27] 908 µM | GI50 [28] 297 µM | GI50 [29] > 1400 µM | GI50 [30] 79.7 µM | GI50 [31] > 1400 µM | GI50 [32] > 1400 µM | GI50 [33] 1140 µM | GI50 [34] > 1400 µM | GI50 [35] > 1400 µM | GI50 [36] > 1400 µM | GI50 [37] 96.7 µM | GI50 [38] 255 µM | GI50 [39] > 1400 µM | GI50 [40] 642 µM | GI50 [41] > 1400 µM | GI50 [42] > 1400 µM | GI50 [43] > 1400 µM | GI50 [44] 112 µM | GI50 [45] > 1400 µM | GI50 [46] > 1400 µM | GI50 [47] > 1400 µM | GI50 [48] > 1400 µM | GI50 [49] 915 µM | GI50 [50] > 1400 µM | GI50 [51] > 1400 µM | GI50 [52] > 1400 µM | GI50 [53] 802 µM | GI50 [54] 80.7 µM | GI50 [55] 1130 µM | GI50 [56] > 1400 µM
950 µM: TGI [38]
